Laboratory results: the NIST ThermoML archive (doi:10.1016/j.jct.2013.10.028)
± gives the expanded uncertainty stated by the source.

Key:
[1] = molar heat capacity at constant pressure; wn = mass fraction of the nth substance listed; conditions: 100 kPa, Liquid, Large sample (1 g) DSC
[2] = molar heat capacity at constant pressure; conditions: 100 kPa, Liquid, Large sample (1 g) DSC

Structure (SMILES): [Cl-].[Li+] [lithium chloride] + O
- molar heat capacity at constant pressure ([1]; 308.15 K, w1 = 0.15): 68.89 ± 2.9 J/K/mol
- molar heat capacity at constant pressure ([1]; 308.15 K, w1 = 0.2001): 67.4 ± 2.9 J/K/mol
- molar heat capacity at constant pressure ([1]; 308.15 K, w1 = 0.2501): 66.11 ± 2.8 J/K/mol
- molar heat capacity at constant pressure ([1]; 308.15 K, w1 = 0.3): 65.14 ± 2.8 J/K/mol
- molar heat capacity at constant pressure ([1]; 308.15 K, w1 = 0.3499): 64.84 ± 2.8 J/K/mol
- molar heat capacity at constant pressure ([1]; 308.15 K, w1 = 0.3998): 64.57 ± 2.7 J/K/mol
- molar heat capacity at constant pressure ([1]; 308.15 K, w1 = 0.4502): 64.39 ± 2.7 J/K/mol
- molar heat capacity at constant pressure ([1]; 313.15 K, w1 = 0.15): 68.97 ± 2.9 J/K/mol
- molar heat capacity at constant pressure ([1]; 313.15 K, w1 = 0.2001): 67.55 ± 2.9 J/K/mol
- molar heat capacity at constant pressure ([1]; 313.15 K, w1 = 0.2501): 66.26 ± 2.8 J/K/mol
- molar heat capacity at constant pressure ([1]; 313.15 K, w1 = 0.3): 65.44 ± 2.8 J/K/mol
- molar heat capacity at constant pressure ([1]; 313.15 K, w1 = 0.3499): 65.16 ± 2.8 J/K/mol
- molar heat capacity at constant pressure ([1]; 313.15 K, w1 = 0.3998): 64.89 ± 2.8 J/K/mol
- molar heat capacity at constant pressure ([1]; 313.15 K, w1 = 0.4502): 64.76 ± 2.7 J/K/mol
- molar heat capacity at constant pressure ([1]; 318.15 K, w1 = 0.15): 69.06 ± 2.9 J/K/mol
- molar heat capacity at constant pressure ([1]; 318.15 K, w1 = 0.2001): 67.65 ± 2.9 J/K/mol
- molar heat capacity at constant pressure ([1]; 318.15 K, w1 = 0.2501): 66.43 ± 2.8 J/K/mol
- molar heat capacity at constant pressure ([1]; 318.15 K, w1 = 0.3): 65.66 ± 2.8 J/K/mol
- molar heat capacity at constant pressure ([1]; 318.15 K, w1 = 0.3499): 65.4 ± 2.8 J/K/mol
- molar heat capacity at constant pressure ([1]; 318.15 K, w1 = 0.3998): 65.17 ± 2.8 J/K/mol
- molar heat capacity at constant pressure ([1]; 318.15 K, w1 = 0.4502): 65.05 ± 2.8 J/K/mol
- molar heat capacity at constant pressure ([1]; 323.15 K, w1 = 0.15): 69.18 ± 2.9 J/K/mol
- molar heat capacity at constant pressure ([1]; 323.15 K, w1 = 0.2001): 67.79 ± 2.9 J/K/mol
- molar heat capacity at constant pressure ([1]; 323.15 K, w1 = 0.2501): 66.6 ± 2.8 J/K/mol
- molar heat capacity at constant pressure ([1]; 323.15 K, w1 = 0.3): 65.9 ± 2.8 J/K/mol
- molar heat capacity at constant pressure ([1]; 323.15 K, w1 = 0.3499): 65.65 ± 2.8 J/K/mol
- molar heat capacity at constant pressure ([1]; 323.15 K, w1 = 0.3998): 65.48 ± 2.8 J/K/mol
- molar heat capacity at constant pressure ([1]; 323.15 K, w1 = 0.4502): 65.37 ± 2.8 J/K/mol
- molar heat capacity at constant pressure ([1]; 328.15 K, w1 = 0.15): 69.28 ± 2.9 J/K/mol
- molar heat capacity at constant pressure ([1]; 328.15 K, w1 = 0.2001): 67.93 ± 2.9 J/K/mol
- molar heat capacity at constant pressure ([1]; 328.15 K, w1 = 0.2501): 66.76 ± 2.8 J/K/mol
- molar heat capacity at constant pressure ([1]; 328.15 K, w1 = 0.3): 66.14 ± 2.8 J/K/mol
- molar heat capacity at constant pressure ([1]; 328.15 K, w1 = 0.3499): 65.92 ± 2.8 J/K/mol
- molar heat capacity at constant pressure ([1]; 328.15 K, w1 = 0.3998): 65.78 ± 2.8 J/K/mol
- molar heat capacity at constant pressure ([1]; 328.15 K, w1 = 0.4502): 65.68 ± 2.8 J/K/mol
- molar heat capacity at constant pressure ([1]; 333.15 K, w1 = 0.15): 69.36 ± 2.9 J/K/mol
- molar heat capacity at constant pressure ([1]; 333.15 K, w1 = 0.2001): 68.02 ± 2.9 J/K/mol
- molar heat capacity at constant pressure ([1]; 333.15 K, w1 = 0.2501): 66.93 ± 2.8 J/K/mol
- molar heat capacity at constant pressure ([1]; 333.15 K, w1 = 0.3): 66.34 ± 2.8 J/K/mol
- molar heat capacity at constant pressure ([1]; 333.15 K, w1 = 0.3499): 66.15 ± 2.8 J/K/mol
- molar heat capacity at constant pressure ([1]; 333.15 K, w1 = 0.3998): 66.04 ± 2.8 J/K/mol
- molar heat capacity at constant pressure ([1]; 333.15 K, w1 = 0.4502): 65.95 ± 2.8 J/K/mol
- molar heat capacity at constant pressure ([1]; 338.15 K, w1 = 0.15): 69.36 ± 2.9 J/K/mol
- molar heat capacity at constant pressure ([1]; 338.15 K, w1 = 0.2001): 68.08 ± 2.9 J/K/mol
- molar heat capacity at constant pressure ([1]; 338.15 K, w1 = 0.2501): 67.02 ± 2.8 J/K/mol
- molar heat capacity at constant pressure ([1]; 338.15 K, w1 = 0.3): 66.49 ± 2.8 J/K/mol
- molar heat capacity at constant pressure ([1]; 338.15 K, w1 = 0.3499): 66.33 ± 2.8 J/K/mol
- molar heat capacity at constant pressure ([1]; 338.15 K, w1 = 0.3998): 66.25 ± 2.8 J/K/mol
- molar heat capacity at constant pressure ([1]; 338.15 K, w1 = 0.4502): 66.17 ± 2.8 J/K/mol
- molar heat capacity at constant pressure ([1]; 343.15 K, w1 = 0.15): 69.42 ± 2.9 J/K/mol
- molar heat capacity at constant pressure ([1]; 343.15 K, w1 = 0.2001): 68.06 ± 2.9 J/K/mol
- molar heat capacity at constant pressure ([1]; 343.15 K, w1 = 0.2501): 67.12 ± 2.8 J/K/mol
- molar heat capacity at constant pressure ([1]; 343.15 K, w1 = 0.3): 66.58 ± 2.8 J/K/mol
- molar heat capacity at constant pressure ([1]; 343.15 K, w1 = 0.3499): 66.49 ± 2.8 J/K/mol
- molar heat capacity at constant pressure ([1]; 343.15 K, w1 = 0.3998): 66.39 ± 2.8 J/K/mol
- molar heat capacity at constant pressure ([1]; 343.15 K, w1 = 0.4502): 66.34 ± 2.8 J/K/mol

Structure (SMILES): O [water]
- molar heat capacity at constant pressure ([2]; 308.15 K): 75.47 ± 3.2 J/K/mol
- molar heat capacity at constant pressure ([2]; 313.15 K): 75.43 ± 3.2 J/K/mol
- molar heat capacity at constant pressure ([2]; 318.15 K): 75.41 ± 3.2 J/K/mol
- molar heat capacity at constant pressure ([2]; 323.15 K): 75.43 ± 3.2 J/K/mol
- molar heat capacity at constant pressure ([2]; 328.15 K): 75.45 ± 3.2 J/K/mol
- molar heat capacity at constant pressure ([2]; 333.15 K): 75.47 ± 3.2 J/K/mol
- molar heat capacity at constant pressure ([2]; 338.15 K): 75.47 ± 3.2 J/K/mol
- molar heat capacity at constant pressure ([2]; 343.15 K): 75.47 ± 3.2 J/K/mol
